From patent US20250257075A1, “MACROCYCLIC INHIBITORS OF KRAS FOR THE TREATMENT OF CANCER” (Hoffmann-La Roche Inc., priority 2022, published 2025)

Key:
[1] = test system: NCI-H358 cells (KRAS G12C); assay: Cell viability assay, G12C; type: cell-based, human; details: Homo sapiens; NCI-H358, 72 hrs, Cell Counting Kit-8
Protocol: (§1) The purpose of this cellular assay was to determine the effects of test compounds on the proliferation of human cancer cell lines NCI-H358 (ATCC-CRL5807) cells, AGS (ATCC-CRL-1739) cells, SW620 (ATCC-CCL-227) over a 3-day treatment period by quantifying the amount of NADPH present at endpoint using Cell Counting Kit-8.
(§2) Cells were seeded at 5,000 cells/well (NCI-H358), 2,000 cells/well (AGS) 2,000 cells/well (SW620) in 96-well assay plates (Corning-3699) and incubated overnight. On the day of the assay, diluted compounds were then added in a final concentration of 0.5% DMSO. After 72 hrs incubation, a tenth of the volume of cell counting kit 8 (Dnjindo-CK04) was added into each well. Read the signal (OD450 minus OD650) using EnVision after 2 hrs incubation. IC50 was determined by fitting a 4-parameter sigmoidal concentration response model.

AGS cells (KRAS G12D) = assay: Cell viability assay, G12D; type: cell-based, human; details: Homo sapiens, 72 hrs, Cell Counting Kit-8
Protocol: as §1, §2

SW620 cells (KRAS G12V) = assay: Cell viability assay, G12V; type: cell-based, human; details: Homo sapiens, SW-620; SW620, 72 hrs, Cell Counting Kit-8
Protocol: as §1, §2

KRAS G12C-BRAF complex [2] = molecular target: T1, KRAS G12C-BRAF complex (Homo sapiens, UniProt P01116+P62937, G12C); assay: KRAS G12C-BRAF NanoBit assay in HEK293 cells; type: cell-based; details: HEK293 stable cell pool, 3 hours of incubation
T1 construct: expressed in transfected cells
T1 sequence (P01116 1-188 isoform P01116-2 G12C): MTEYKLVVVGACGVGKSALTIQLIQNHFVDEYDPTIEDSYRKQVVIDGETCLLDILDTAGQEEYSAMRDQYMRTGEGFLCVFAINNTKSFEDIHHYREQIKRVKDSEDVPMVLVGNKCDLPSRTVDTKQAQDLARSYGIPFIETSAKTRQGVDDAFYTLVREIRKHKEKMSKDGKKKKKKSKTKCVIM
T1 sequence (P62937 whole entry): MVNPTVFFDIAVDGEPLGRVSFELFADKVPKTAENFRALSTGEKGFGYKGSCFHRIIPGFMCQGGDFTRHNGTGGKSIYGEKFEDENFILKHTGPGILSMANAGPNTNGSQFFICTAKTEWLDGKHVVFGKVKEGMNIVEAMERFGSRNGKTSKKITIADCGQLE
Protocol: This assay is to measure the ability of tested compounds in disruption of the KRAS G12C-BRAF complex at the cellular level, we established the NanoBit cellular assay in mammalian HEK293 (ATCC) cells. HEK293 cells were grown and maintained using DMEM medium (Thermo Fisher Scientific) with 10% fetal bovine serum and 1% penicillin/streptomycin. Both KRAS G12C and BRAF RBD were cloned into the NanoBit vectors ([…] vectors system, Promega) with the orientations SmBit-KRAS G12C and BRAF RBD-LgBit, respectively, and co-transfected into HEK293 cells. Cells were then selected with 100 μg/mL Hygromycin B (10687010, Thermo Fisher) and Blasticidin (5 μg/mL) for 4 weeks to get the stable cell pool. On the day of the assay, 75 nL of compound solution was presented in a 384-well assay plate as a 16-point 3-fold dilution starting from a final concentration of 30 μM in DMSO. Then cells were seeded at 10,000 cells/25 μL/well in a 384-well plate. After 3 hours of incubation, 6 μL of volume of Nano-Glo® Live Cell Substrate (Promega) was added into each well. Monitor luminescence using ultra384 model in Envision at 20 minutes. Compounds that facilitate disruption of the KRAS G12C-BRAF RBD complex were identified as those eliciting a decrease of luminescence relative to DMSO control wells.

KRAS G12C-BRAF complex [3] = molecular target: T1, KRAS G12C-BRAF complex; assay: KRAS-BRAF with CYPA (500 nM) interaction assay (TR-FRET), G12C; type: biochemical; details: 3 hours
Protocol: (§3) Kras-BRAF with CYPA (500 nM) Interaction Assay In this example, TR-FRET was also used to measure the compound or compound-CYPA dependent disruption of the KRAS G12C-BRAF complex. This protocol was also used to measure disruption of KRAS G12D or KRAS G12V binding to BRAF by a compound of the invention, respectively. […] TR-FRET signal was read on a […] microplate reader (Ex320 nm, Em 665/615 nm). Compounds that facilitate disruption of the KRAS-BRAF complex were identified as those eliciting a decrease in the TR-FRET ratio relative to DMSO control wells.

[4] = molecular target: KRAS G12D binding to BRAF (Homo sapiens, UniProt P01116+P62937, G12D); assay: KRAS-BRAF with CYPA (500 nM) interaction assay (TR-FRET), G12D; type: biochemical; details: 3 hours
Sequence of KRAS G12D binding to BRAF (P01116 1-188 isoform P01116-2 G12D): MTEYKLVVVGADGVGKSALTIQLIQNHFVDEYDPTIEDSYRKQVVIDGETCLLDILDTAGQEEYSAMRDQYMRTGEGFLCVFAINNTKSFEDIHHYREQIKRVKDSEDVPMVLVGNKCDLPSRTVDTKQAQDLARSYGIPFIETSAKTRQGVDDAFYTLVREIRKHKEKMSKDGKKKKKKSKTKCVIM
Sequence of KRAS G12D binding to BRAF (P62937 whole entry): as the sequence (P62937 whole entry) above
Protocol: as §3

[5] = molecular target: KRAS G12V binding to BRAF (Homo sapiens, UniProt P01116+P62937, G12V); assay: KRAS-BRAF with CYPA (500 nM) interaction assay (TR-FRET), G12V; type: biochemical; details: 3 hours
Sequence of KRAS G12V binding to BRAF (P01116 1-188 isoform P01116-2 G12V): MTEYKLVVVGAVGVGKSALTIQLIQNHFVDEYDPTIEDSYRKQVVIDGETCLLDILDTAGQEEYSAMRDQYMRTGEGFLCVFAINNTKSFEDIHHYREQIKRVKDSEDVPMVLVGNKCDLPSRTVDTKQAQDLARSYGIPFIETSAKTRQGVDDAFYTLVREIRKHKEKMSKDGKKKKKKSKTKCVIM
Sequence of KRAS G12V binding to BRAF (P62937 whole entry): as the sequence (P62937 whole entry) above
Protocol: as §3

[6] = test system: phosphorylation of ERK, KRAS G12C in NCI-H358 cells; assay: pERK inhibition assay, G12C; type: cell-based, human; details: Homo sapiens; NCI-H358, 4 hours of incubation
Protocol: (§4) This assay is to measure the ability of test compounds in inhibiting the phosphorylation of ERK, the downstream signaling of KRAS G12C in NCI-H358 cells, KRAS G12D in AGS cells, and KRAS G12V in SW620. NCI-H358 (ATCC-CRL5807) cells, AGS (ATCC-CRL-1739) cells, SW620 (ATCC-CCL-227) cells were all grown and maintained using RPMI-1640 medium (Thermo Fisher Scientific) with 10% fetal bovine serum and 1% penicillin/streptomycin. On the day prior to compound addition, cells were plated in tissue culture-treated 96 well plates (Corning-3699) at a density of 30,000 cell/well, 20,000 cell/well, 30,000 cell/well for NCI-H358, AGS and SW620 respectively, and allowed for attachment overnight. Diluted compounds were then added in a final concentration of 0.5% DMSO. After 4 hours of incubation, the medium was removed, 100 μL of 4% formaldehyde was added, and the assay plates were incubated at room temperature for 20 minutes. The plates were then washed once with phosphate buffered saline (PBS), and permeabilized with 100 μL of chilled methanol for 10 minutes. Non-specific antibody binding to the plates was blocked using 50 μL 1×BSA blocking buffer (Thermo-37520, 10-fold dilution by Phosphate-Buffered Saline Tween (PBST) for at least 1 hour at room temperature.
(§5) The amount of phosphor-ERK was determined using an antibody specific for phosphorylated form of ERK. Primary antibody (pERK, CST-4370, Cell Signaling Technology) was diluted 1:300 in blocking buffer, with 50 μL aliquoted to each well, and incubated overnight at 4° C. Cells was washed five times for 5 minutes with PBST. Secondary antibody (HRP-linked anti-rabbit IgG, CST-7074, Cell Signaling Technology) was diluted 1:1000 in blocking buffer, and 50 μL was added to each well and incubated 1-2 hrs at room temperature. Cells was washed 5 times for 5 minutes with PBST, 100 μL TMB ELISA substrate (abcam-ab171523) were added and gently shake for 20 minutes. 50 μL stop solution (abcam-ab171529) were added, and then read the signal (OD450) by EnVision.
(§6) IC50 was determined by fitting a 4-parameter sigmoidal concentration response model.

[7] = test system: phosphorylation of ERK, KRAS G12D in AGS cells; assay: pERK inhibition assay, G12D; type: cell-based, human; details: Homo sapiens, 4 hours of incubation
Protocol: as §4, §5, §6

[8] = test system: phosphorylation of ERK, KRAS G12V in SW620; assay: pERK inhibition assay, G12V; type: cell-based, human; details: Homo sapiens, SW-620; SW620, 4 hours of incubation
Protocol: as §4, §5, §6

| IC50 [1] [µM] | IC50 (AGS cells (KRAS G12D)) [µM] | IC50 (SW620 cells (KRAS G12V)) [µM] | IC50 (KRAS G12C-BRAF complex [2]) [µM] | IC50 (KRAS G12C-BRAF complex [3]) [µM] | IC50 [4] [µM] | IC50 [5] [µM] | IC50 [6] [µM] | IC50 [7] [µM] | IC50 [8] [µM] | SMILES |
| --- | --- | --- | --- | --- | --- | --- | --- | --- | --- | --- |
| 0.123 | 0.781 | 0.041 | 0.219 | 0.43 | 0.142 | > 10 | 0.063 | 0.509 | 0.006 | CO[C@@H](C)c1ncc(N2CCN(C)CC2)cc1-c1c2c3cc(c(F)cc3n1CC(F)(F)F)-c1csc(n1)C[C@H](NC(=O)[C@H](C(C)C)N(C)C(=O)c1ccc(C#CC(F)(F)F)cc1)C(=O)N1CCC[C@H](N1)C(=O)OCC(C)(C)C2 (atropisomer, axis not shown; (M)) [Example 4, N-[(1S)-1-[[(7S,13S)-24-fluoro-(20M)-20-[2-[(1S)-1-methoxyethyl]-5-(4-methylpiperazin-1-yl)-3-pyridyl]-17,17-dimethyl-8,14-dioxo-21-(2,2,2-trifluoroethyl)-15-oxa-4-thia-9,21,27,28-tetrazapentacyclo[17.5.2.1^2,5.1^9,13.0^22,26]octacosa-1(25),2,5(28),19,22(26),23-hexaen-7-yl]carbamoyl]-2-methyl-propyl]-N-methyl-4-(3,3,3-trifluoroprop-1-ynyl)benzamide] |
| < 0.001 | 2.84 | 4.73 | 0.029 | 0.021 | > 10 | > 10 | 0.002 |  | 0.008 | CCn1c(-c2cc(N3CCN(C)CC3)cnc2[C@H](C)OC)c2c3cc(c(F)cc31)-c1csc(n1)C[C@H](NC(=O)[C@H](C(C)C)N(C)C(=O)[C@H]1C[C@@H](C#CC(F)(F)F)C1)C(=O)N1CCC[C@H](N1)C(=O)OCC(C)(C)C2 (atropisomer, axis not shown; (M)) [Example 6, cis-N-[(1S)-1-[[(7S,13S)-21-ethyl-24-fluoro-(20M)-20-[2-[(1S)-1-methoxyethyl]-5-(4-methylpiperazin-1-yl)-3-pyridyl]-17,17-dimethyl-8,14-dioxo-15-oxa-4-thia-9,21,27,28-tetrazapentacyclo[17.5.2.1^2,5.1^9,13.0^22,26]octacosa-1(25),2,5(28),19,22(26),23-hexaen-7-yl]carbamoyl]-2-methyl-propyl]-N-methyl-3-(3,3,3-trifluoroprop-1-ynyl)cyclobutanecarboxamide] |
| 0.023 | > 5 | > 5 | 0.335 | > 10 | > 10 | > 10 | 1.1 |  | 0.099 | CO[C@@H](C)c1ncc(N2CCN(CC(F)(F)F)CC2)cc1-c1c2c3cc(c(F)cc3n1CC(F)(F)F)-c1csc(n1)C[C@H](NC(=O)[C@H](C(C)C)N(C)C(=O)[C@H]1C[C@@H](C#CC(F)(F)F)C1)C(=O)N1CCC[C@H](N1)C(=O)OCC(C)(C)C2 (atropisomer, axis not shown; (M)) [Example 7, cis-N-[(1S)-1-[[(7S,13S)-24-fluoro-(20M)-20-[2-[(1S)-1-methoxyethyl]-5-[4-(2,2,2-trifluoroethyl)piperazin-1-yl]-3-pyridyl]-17,17-dimethyl-8,14-dioxo-21-(2,2,2-trifluoroethyl)-15-oxa-4-thia-9,21,27,28-tetrazapentacyclo[17.5.2.1^2,5.1^9,13.0^22,26]octacosa-1(25),2,5(28),19,22(26),23-hexaen-7-yl]carbamoyl]-2-methyl-propyl]-N-methyl-3-(3,3,3-trifluoroprop-1-ynyl)cyclobutanecarboxamide] |

Continued, molecule first:

| SMILES | IC50 [1] [µM] | IC50 (AGS cells (KRAS G12D)) [µM] | IC50 (SW620 cells (KRAS G12V)) [µM] | IC50 (KRAS G12C-BRAF complex [2]) [µM] | IC50 (KRAS G12C-BRAF complex [3]) [µM] | IC50 [4] [µM] | IC50 [5] [µM] | IC50 [6] [µM] | IC50 [7] [µM] | IC50 [8] [µM] |
| --- | --- | --- | --- | --- | --- | --- | --- | --- | --- | --- |
| CO[C@@H](C)c1ncc(N2CCN(C)CC2)cc1-c1c2c3cc(c(F)cc3n1CC(F)(F)F)-c1csc(n1)C[C@H](NC(=O)[C@H](C(C)C)N(C)C(=O)[C@H]1C[C@H](C#CC(F)(F)F)C1)C(=O)N1CCC[C@H](N1)C(=O)OCC(C)(C)C2 (atropisomer, axis not shown; (M)) [Example 1, trans-N-[(1S)-1-[[(7S,13S)-24-fluoro-(20M)-20-[2-[(1S)-1-methoxyethyl]-5-(4-methylpiperazin-1-yl)-3-pyridyl]-17,17-dimethyl-8,14-dioxo-21-(2,2,2-trifluoroethyl)-15-oxa-4-thia-9,21,27,28-tetrazapentacyclo[17.5.2.1^2,5.1^9,13.0^22,26]octacosa-1(25),2,5(28),19,22(26),23-hexaen-7-yl]carbamoyl]-2-methyl-propyl]-N-methyl-3-(3,3,3-trifluoroprop-1-ynyl)cyclobutanecarboxamide] | 0.027 | > 10 | 0.04 | 0.081 | 3.35 | > 10 | > 10 | 0.035 | 1.1 | 0.063 |
| CO[C@@H](C)c1ncc(N2CCN(C)CC2)cc1-c1c2c3cc(c(F)cc3n1CC(F)(F)F)-c1csc(n1)C[C@H](NC(=O)[C@H](C(C)C)N(C)C(=O)N1CC(C#CC(F)(F)F)C1)C(=O)N1CCC[C@H](N1)C(=O)OCC(C)(C)C2 (atropisomer, axis not shown; (M)) [Example 2, N-[(1S)-1-[[(7S,13S)-24-fluoro-(20M)-20-[2-[(1S)-1-methoxyethyl]-5-(4-methylpiperazin-1-yl)-3-pyridyl]-17,17-dimethyl-8,14-dioxo-21-(2,2,2-trifluoroethyl)-15-oxa-4-thia-9,21,27,28-tetrazapentacyclo[17.5.2.1^2,5.1^9,13.0^22,26]octacosa-1(25),2,5(28),19,22(26),23-hexaen-7-yl]carbamoyl]-2-methyl-propyl]-N-methyl-3-(3,3,3-trifluoroprop-1-ynyl)azetidine-1-carboxamide] | 0.002 | 0.02 | 0.01 | 0.018 | 1.79 | > 10 | 6.74 | 0.013 |  | 0.007 |
